Test results reported in US4283494A, “Microbial lipase, process for its preparation and microbiologically pure culture therefor” (Meito Sangyo Kabushiki Kaisha, priority 1978, dated 1981).
Where two headings read alike, the source gives them in different places.

What was measured:
[1] = tested on: microbial lipase of the invention, Alcaligenes sp. PL-679 Meito (FERM-P No. 3783, ATCC 31371); conditions: 10 min
[2] = tested on: microbial lipase of the invention, Alcaligenes sp. PL-679 Meito (FERM-P No. 3783, ATCC 31371); experiment: Lipase activity inhibition by inhibiting reagents (contact at 37° C. for 10 minutes, then olive oil emulsion assay); assay type: biochemical; conditions: inhibiting reagent 10^-2 mole, lipase about 3 U/ml
Method: An aqueous solution of the lipase sample (about 3 units/ml) is contacted with each of the inhibiting agents at 37° C. for 10 minutes, and the lipase activity is measured.
The lipase in a concentration of about 3 U/ml is contacted with various inhibiting reagents at 37° C. for 10 minutes, and then the lipase activity is measured.
Glycine buffer (1 mole, pH 8.7): 2.0 ml
Olive oil emulsion: 2.5 ml
The olive oil emulsion is prepared by adding 20 g of olive oil to 180 ml of a 10% aqueous solution of gum arabic, homogenizing the mixture at 11,000 r.p.m. for 15 minutes while it is cooled to 5°-10° C., and adjusting the pH of the homogenized mixture to 8.7.
The reaction mixture is placed in a 25 ml glass stopper tube, and reacted exactly for 10 minutes at 37° C. Then, the reaction is stopped by adding 1 ml of 2 N sulfuric acid, and 15 ml of a mixture of n-heptane and isopropanol in a ratio of 11:4 is added. The mixture is vigorously shaken for 30 seconds, and allowed to stand for more than 30 minutes. […] The mixture is treated in the same way as above, and the resulting product is titrated with a potassium hydroxide solution, and the measured value obtained is substracted from the measured value obtained above. The amount of fatty acid liberated is calculated from the resulting titration value with reference to the standard line prepared by using a known amount of palmitic acid. […]

[3] = tested on: Lipase I of Japanese Laid-Open Patent Publication No. 21387/77, Alcaligenes sp. PL-266 Meito; conditions: cited from earlier work
[4] = tested on: Lipase II of Japanese Laid-Open Patent Publication No. 21387/77, Alcaligenes sp. PL-266 Meito; conditions: cited from earlier work
[5] = concentration of bile salt 0.2%
[6] = concentration of bile salt 0.4%
[7] = concentration of bile salt 0.6%
[8] = concentration of bile salt 0.8%

| Compound | Lipase activity, percentage based on the lipase activity in the absence of a bile salt [1, 5] | Lipase activity, percentage based on the lipase activity in the absence of a bile salt [1, 6] | Lipase activity, percentage based on the lipase activity in the absence of a bile salt [1, 7] | Lipase activity, percentage based on the lipase activity in the absence of a bile salt [1, 8] | also measured |
| --- | --- | --- | --- | --- | --- |
| C[C@H](CCC(=O)O)[C@H]1CC[C@H]2[C@@H]3[C@H](O)C[C@@H]4C[C@H](O)CC[C@]4(C)[C@H]3C[C@H](O)[C@]12C [Cholate] | 197% | 221% | 211% | 229% |  |
| C[C@H](CCC(=O)O)[C@H]1CC[C@H]2[C@@H]3CC[C@@H]4C[C@H](O)CC[C@]4(C)[C@H]3C[C@H](O)[C@]12C [Desoxycholate] | 289% | 300% | 305% | 303% |  |
| C[C@H](CCC(=O)NCC(=O)O)[C@H]1CC[C@H]2[C@@H]3[C@H](O)C[C@@H]4C[C@H](O)CC[C@]4(C)[C@H]3C[C@H](O)[C@]12C [Glycocholate] | 218% | 221% | 232% | 224% |  |
| CCOC(=O)OC(=O)OCC [ethoxyformic anhydride] |  |  |  |  | Activity inhibition of the lipase [2]: about 70% |
| II [iodine] |  |  |  |  | Activity inhibition of the lipase [2]: about 95% |
| O=C(O)CI [monoiodoacetic acid] |  |  |  |  | Activity inhibition by monoiodoacetic acid ([3]; concentration 10^-3 mole): Not inhibited; Activity inhibition by monoiodoacetic acid ([4]; concentration 10^-3 mole): Not inhibited |
| O=C1O[C@H]([C@@H](O)CO)C([O-])=C1O.[Na+] [sodium ascorbate] |  |  |  |  | Activity inhibition by sodium ascorbate ([3]; concentration 10^-2 mole): Not inhibited; Activity inhibition by sodium ascorbate ([4]; concentration 10^-2 mole): Not inhibited |
